Test results published in patent US7671069B2, “Tricyclic, heteroaromatic compounds modulating CXCR4 and/ or CXCR7” (ChemoCentryx, Inc., priority 2006, dated 2010).

These compounds were tested against T1, CXCR4 (Homo sapiens, UniProt P61073) (assay: Inhibition of SDF-1 ligand binding or chemotaxis assay for CXCR4). Conditions: first (or only) activity listed in CXCR4/CXCR7; chemotaxis assay or binding assays.
T1 construct: endogenous in cells; host or cells: CEM-Nkr, CCRF-CEM (ATCC #CCL-119), Jurkat (ATCC #TIB-152), Molt-4 (ATCC# CRL-1582); IL-2 stimulated lymphocytes from human blood
T1 sequence (P61073 whole entry): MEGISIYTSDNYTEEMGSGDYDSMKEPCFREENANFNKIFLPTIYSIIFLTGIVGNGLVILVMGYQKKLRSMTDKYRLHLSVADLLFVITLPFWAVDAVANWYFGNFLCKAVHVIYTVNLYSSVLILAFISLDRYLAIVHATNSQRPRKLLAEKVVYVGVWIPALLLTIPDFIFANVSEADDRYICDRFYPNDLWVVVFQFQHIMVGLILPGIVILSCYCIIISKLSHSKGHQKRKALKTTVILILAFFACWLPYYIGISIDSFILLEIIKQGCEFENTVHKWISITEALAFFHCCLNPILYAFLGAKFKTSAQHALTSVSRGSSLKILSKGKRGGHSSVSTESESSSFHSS
Experimental: CEM-Nkr, CCRF-CEM (ATCC #CCL-119), Jurkat (ATCC #TIB-152), Molt-4 (ATCC# CRL-1 582), cell lines, all endogenously expressing CXCR4, were used in compound screening and subsequent assays. These cell lines were cultured as a suspension in RPMI-1640 medium supplemented with 2 mM L-glutamine, 1.5 g/L sodium bicarbonate, 4.5 g/L glucose, 10 mM HEPES, 1 mM sodium pyruvate, and 10% FBS. Cells were grown under 5% CO2/95% air, 100% humidity at 37° C. and subcultured twice weekly at 1:6 (cells were cultured at a density range of 1×10^5 to 2×10^6 cells/mL) and harvested at 1×10^6 cells/mL.
Il-2 stimulated lymphocytes were isolated from fresh human blood using density separation and centrifigation. Briefly, whole blood is incubated with equal parts 3% dextran and allowed to separate for 45 minutes. After separation, the top layer is then layered on top of 15 mls of Ficoll (15 mls of Ficoll for every 30 mls of blood suspension) and centrifuged for 30 minutes at 400×g with no brake. The pellet at the bottom of the tube is then isolated and resuspended into PharmLyse RBC Lysis Buffer (BD Biosciences, San Jose, Calif.) after which the sample is again centrifuged for 10 minutes at 400×g with brake. The remaining cell pellet is resuspended as appropriate and stimulated with PHA for 2 days, followed by culturing in the presence of human IL-2 cytokine.
Cells were centrifuged and resuspended in assay buffer (20 mM HEPES pH 7.1, 140 mM NaCl, 1 mM CaCl2, 5 mM MgCl2, and with 0.2% bovine serum albumin) to a concentration of 4×10^6 cells/mL for cell lines. Binding assays were set up as follows. 0.15 mL of cells (6×10^5 cells/well) was added to the assay plates containing the compounds, giving a final concentration of ˜2-10 μM each compound for screening (or part of a dose response for compound IC50 determinations). Then 0.1 mL of ^125I labeled SDF-1α (obtained from Perkin Elmer Life Sciences, Boston, Mass.) diluted in assay buffer to a final concentration of ˜[…], yielding ˜30,000 cpm per well, was added, the plates sealed and incubated for approximately 3 hours at 4° C. on a shaker platform. Reactions were aspirated onto GF/B glass filters pre-soaked in 0.3% polyethyleneimine (PEI) solution, on a vacuum cell harvester (Packard Instruments; Meriden, Conn.). Scintillation fluid (40 μl; Microscint 20, Packard Instruments) was added to each well, the plates were sealed and radioactivity measured in a Topcount scintillation counter (Packard Instruments). Control wells containing either diluent only (for total counts) or excess SDF1a (1 μg/mL, for non-specific binding) were used to calculate the percent of total inhibition for compound. The computer program Prism from Graph Pad, Inc. (San Diego, Calif.) was used to calculate IC50 values. IC50 values are those concentrations required to reduce the binding of radiolabeled SDF-1α to the receptor by 50%. (For further descriptions of ligand binding and other functional assays, see Dairaghi, et al., J. Biol. Chem. 274:21569-21574 (1999), Penfold, et al., Proc. Natl. Acad. Sci. USA. 96:9839-9844 (1999), and Dairaghi, et al,. J. Biol. Chem. 272:28206-28209 (1997)).
Chemotaxis assays were performed using 5 μm pore polycarbonate, polyvinylpyrrolidone-coated filters in 96-well chemotaxis chambers (Neuroprobe; Gaithersburg, Md.) using chemotaxis buffer (Hank's balanced salt solution (HBSS) and 1% FBS). CXCR4 ligand (i.e., SDF1a, R&D Systems; Minneapolis, Minn.) are use to evaluate compound mediated inhibition of CXCR4 mediated migration. Other chemokines (i.e., TECK; R&D Systems; Minneapolis, Minn.) are used as specificity controls. The lower chamber was loaded with 29 μl of chemokine (i.e., 0.1 nM SDF1a); the top chamber contained 50,000 Jurkat cells or IL-2 lymphocytes in 20 μl. […]
Work on `Cc1ccc2c(c1)-c1nn(CC(=O)NCCN(C)C3CCCCC3)cc1CO2` [Compound 3] yielded an IC50 of 1000 to 10000 nM.
`CN(CCNC(=O)Cn1ncc2c1-c1cc(Cl)ccc1OC2)C1CCCCC1` [Compound 4] was tested, and the IC50 was greater than 10000 nM.
`Cc1ccc2c(c1)-c1c(cnn1CC(=O)N1CCN(C3CCCCCC3)CC1)CO2` [Compound 5] gave an IC50 of 1000 to 10000 nM.
With `CN(CCNC(=O)Cn1ncc2c1-c1ccccc1CC2)C1CCCCC1` [Compound 6] the IC50 was 1000 to 10000 nM.
With `COc1ccc2c(c1)-c1c(cnn1CC(=O)NCCN(C1CCCCC1)C1CCCCC1)CO2` [Compound 7] the IC50 was 1000 to 10000 nM.
`Cc1ccc2c(c1)c1c(cnn1CC(=O)NCCN(C)C1CCCCC1)c(=O)n2C` [Compound 8] was tested, and the IC50 was 1000 to 10000 nM.
For `COc1ccc2nc(OC)c3cnn(CC(=O)NCCN(C)C4CCCCC4)c3c2c1` [Compound 9], the IC50 was less than 1000 nM.
For `CN(CCNC(=O)Cn1ncc2[nH]c(=O)c3ccccc3c21)C1CCCCC1` [Compound 10], the IC50 was greater than 10000 nM.
`COc1nc2cnn(CC(=O)NCCN(C)C3CCCCC3)c2c2ccccc12` [Compound 11] gave an IC50 of 1000 to 10000 nM.
`COc1ccc2c(c1)c1c(cnn1CC(=O)NCCN(C)C1CCCCC1)c(=O)n2CC(=O)OC(C)(C)C` [Compound 12] was tested, and the IC50 was 1000 to 10000 nM.
Compound `CN(CCCNC(=O)Cn1ncc2cc3ccccc3nc21)C1CCCCC1` [Compound 14] has an IC50 of 1000 to 10000 nM.
Work on `COc1ccc2c(c1)c1c(cnn1C(C)C(=O)NCCN(C)C1CCCCC1)c(=O)n2C` (stereo not drawn) [Compound 15] yielded an IC50 of 1000 to 10000 nM.
For `COc1ccc2c(c1)c1c(cnn1CC(=O)NCCN1CCC3CCCCC3C1)c(=O)n2C` (stereo not drawn) [Compound 16], the IC50 was less than 1000 nM.
With `COc1ccc2c(c1)c1c(cnn1CC(=O)NCC1CCCN(C3CCCCC3)C1)c(=O)n2C` (stereo not drawn) [Compound 17] the IC50 was greater than 10000 nM.
For `COc1ccc2c(c1)c1c(cnn1CC(=O)NCCN(C)C1CCOCC1)c(=O)n2C` [Compound 18], the IC50 was greater than 10000 nM.
In the case of `CN(CCNC(=O)Cn1ncc2c1-c1ccc(C#N)cc1OC2)C1CCCCC1` [Compound 19], the IC50 is reported as less than 1000 nM.
`COc1ccc2c(c1)-c1c(cnn1CC(=O)NCCN(C)C1CCCC1)CO2` [Compound 20] showed an IC50 of 1000 to 10000 nM.
`CN(CCNC(=O)Cn1ncc2c(=O)oc3ccccc3c21)C1CCCCC1` [Compound 21] showed an IC50 greater than 10000 nM.
Work on `CN(CCNC(=O)Cn1ncc2c(=O)oc3ccc(Cl)cc3c21)C1CCCCC1` [Compound 22] yielded an IC50 of 1000 to 10000 nM.
`Cc1cc2c(cc1Cl)-c1c(cnn1CC(=O)NCCN(C)C1CCCCC1)CO2` [Compound 23] showed an IC50 greater than 10000 nM.
In the case of `COc1ccc2c(c1)-c1c(cnn1CC(=O)NCCN(C)C1CCCCCCC1)CO2` [Compound 25], the IC50 is reported as 1000 to 10000 nM.
With `COc1ccc2c(c1)-c1c(cnn1CC(=O)NCCN(C)C1CCCCCC1)CO2` [Compound 26] the IC50 was greater than 10000 nM.
`COc1ccc2c(c1)-c1c(cnn1C(=O)NCCN1CCC[C@@H]3CCCC[C@@H]31)CO2` [Compound 27] showed an IC50 of 1000 to 10000 nM.
`COc1ccc2c(c1)c1c(cnn1C(=O)NCCN1CCC[C@@H]3CCCC[C@H]31)c(=O)n2C` [Compound 28] gave an IC50 of less than 1000 nM.
Work on `CCN(CCNC(=O)Cn1ncc2c(=O)n(C)c3ccc(OC)cc3c21)C1CCCCC1` [Compound 29] yielded an IC50 of 1000 to 10000 nM.
`CCn1c(=O)c2cnn(CC(=O)NCCN(C)C3CCCCC3)c2c2cc(OC)ccc21` [Compound 33] gave an IC50 of less than 1000 nM.
In the case of `COc1ccc2c(c1)c1c(cnn1CC(=O)NCCN1CC[C@@H]3CCCC[C@H]3C1)c(=O)n2C` [Compound 34], the IC50 is reported as less than 1000 nM.
`COc1ccc2c(c1)c1c(cnn1CC(=O)NCCCN(C)C1CCCCC1)c(=O)n2C` [Compound 35] was tested, and the IC50 was less than 1000 nM.
`COc1nc2ccc(C)cc2c2c1cnn2CC(=O)NCCN(C)C1CCCCC1` [Compound 36] showed an IC50 of 1000 to 10000 nM.
Work on `CCN(CCCNC(=O)Cn1ncc2c(=O)n(C)c3ccc(OC)cc3c21)C1CCCCC1` [Compound 37] yielded an IC50 of less than 1000 nM.
`COc1ccc2c(c1)c1c(cnn1C(C)C(=O)NCCCN(C)C1CCCCC1)c(=O)n2C` (stereo not drawn) [Compound 38] gave an IC50 of 1000 to 10000 nM.
`COc1ccc2c(c1)-c1c(cnn1CC(=O)NCCN(C)C1CCCCC1)C(OCC(=O)OC(C)(C)C)N2` (stereo not drawn) [Compound 39] showed an IC50 of 1000 to 10000 nM.
Compound `COc1ccc2c(c1)c1c(cnn1CC(=O)NCCN1CCCC(C)C1)c(=O)n2C` (stereo not drawn) [Compound 40] has an IC50 of 1000 to 10000 nM.
